How the values were obtained:
travellers = conditions: 3851 travellers surveyed, prophylactic use; cited from earlier work
Plasmodium falciparum = conditions: Karle et al. 1993; cited from earlier work
[1] = target: bovine striatal adenosine receptors (non-selective); conditions: displacement of [3H]-NECA
mice [2] = assay: Irwin screen of overt physiological and behavioral effects in mice; conditions: for reduced activity, unkempt appearance, hunched body posture (late effects): high dose, daily p.o. dosing, about five days
[3] = target: T1, adenosine A2A receptors endogenously expressed in PC-12 cells (Rattus norvegicus, UniProt P30543); assay: Agonist-induced increase in extracellular acidification rate (ECAR) in PC-12 cells, cytosensor microphysiometer; assay type: cell-based
T1 construct: PC12 cells endogenously express adenosine A2A receptors; host or cells: PC-12 cells
T1 sequence (P30543 whole entry): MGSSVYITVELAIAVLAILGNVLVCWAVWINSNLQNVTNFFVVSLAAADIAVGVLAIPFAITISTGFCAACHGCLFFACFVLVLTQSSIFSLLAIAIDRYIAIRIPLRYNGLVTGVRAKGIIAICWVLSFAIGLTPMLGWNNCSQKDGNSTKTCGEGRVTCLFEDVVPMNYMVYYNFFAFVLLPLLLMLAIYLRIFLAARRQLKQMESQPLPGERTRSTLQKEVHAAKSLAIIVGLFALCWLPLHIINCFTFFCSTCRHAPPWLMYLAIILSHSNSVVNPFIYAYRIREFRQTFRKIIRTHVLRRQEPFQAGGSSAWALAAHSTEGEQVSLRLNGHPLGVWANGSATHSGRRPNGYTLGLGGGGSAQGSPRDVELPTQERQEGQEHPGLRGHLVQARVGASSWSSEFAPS
Description: PC-12 cells (purchased from ECACC) were maintained in RPMI 1640 media (Sigma) supplemented with 2 mM L-glutamine and 10% FCS in a controlled environment of 5% CO2, 95% humidity at 37° C.
On the day of the assay the cells were gently harvested and centrifuged at 700 RPM for 10 min. The supernatant was discarded and the pellet re-suspended to a final density of approx. 1×10^6 cells/ml in modified RPMI 1640 media. 600 μl of this suspension was mixed with 200 μl of molten agarose cell entrapment media (Molecular Devices) pre-incubated to 37° C. The cell suspension was returned to the incubator for a further 10 minutes for equilibration. 10 μl of this cell agarose suspension was spotted onto the middle of the capsule insert well and allowed to set before being placed in the sensor chambers in the cytosensor® microphysiometer. […]
Agonist concentration curves were constructed by exposing the cells to increasing concentrations of agonist for a total exposure time of approximately 1 min 53 sec. Agonist concentration curves in the presence of antagonists were performed following pre-incubation of the cells to the antagonists for at least 20 min prior to agonist exposure (in the presence of the fixed antagonist concentration) Baseline acidification rates were normalised to 100%, and all responses were calculated as a % increase over normalised baseline. […]

mice [4] = assay: Potentiation of pentylenetetrazole-induced seizures (proconvulsant effect) in mice; conditions: 300 mg/kg p.o., 24 hrs after a single dose
[5] = target: T2, human recombinant (HEK-293) adenosine A3 receptors (Homo sapiens, UniProt P0DMS8); conditions: comparative literature data for reference ligands; cited from earlier work
T2 construct: expressed in transfected cells; host or cells: HEK-293
T2 sequence (P0DMS8 1-318): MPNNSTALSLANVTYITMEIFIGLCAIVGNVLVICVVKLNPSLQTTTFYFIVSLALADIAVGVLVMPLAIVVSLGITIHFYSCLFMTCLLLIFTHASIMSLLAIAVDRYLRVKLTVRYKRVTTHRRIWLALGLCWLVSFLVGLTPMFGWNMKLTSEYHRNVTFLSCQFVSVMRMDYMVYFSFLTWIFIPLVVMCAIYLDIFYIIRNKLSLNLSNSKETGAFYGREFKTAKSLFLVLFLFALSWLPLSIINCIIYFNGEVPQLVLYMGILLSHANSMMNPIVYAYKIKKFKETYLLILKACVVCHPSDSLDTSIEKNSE

Row | Compound | Ki [1] [µM] | reduced activity, unkempt appearance, hunched body posture (late effects) (mice [2]) | Ki [5] [µM] | further results
1 | O[C@H](c1cc(C(F)(F)F)nc2c(C(F)(F)F)cccc12)[C@@H]1CCCCN1 (racemic) [mefloquine, (R*,S*)-(±)-α-2-Piperidinyl-2,8-bis(trifluoromethyl)-4-quinolinemethanol] | – | – | – | adverse neuropsychiatric events compared with proguanil plus chloroquine (travellers): significant excess of adverse neuropsychiatric events
2 | O[C@H](c1cc(C(F)(F)F)nc2c(C(F)(F)F)cccc12)[C@@H]1CCCCN1 [(+)-enantiomer, (+)-(11R,2′S)-α-2-piperidinyl-2,8-bis(trifluoromethyl)-4-quinolinemethanol] | 38 | these effects only became apparent after 5-6 days, and did not include seizures | – | factor by which the (+)-enantiomer was more potent than the (−)-enantiomer (Plasmodium falciparum): 1.69-1.81
3 | O[C@@H](c1cc(C(F)(F)F)nc2c(C(F)(F)F)cccc12)[C@H]1CCCCN1 [(−)-enantiomer, (−)-(11S,2′R)-α-2-piperidinyl-2,8-bis(trifluoromethyl)-4-quinolinemethanol] | 0.083 | showed reduced activity, unkempt appearance and assumed a hunched body posture | – | effect on the CGS 21680-induced increase in ECAR ([3]; agonist CGS 21680, FIG. 6): specific to adenosine A2A receptors; effect on the NECA-induced increase in ECAR ([3]; agonist NECA, FIG. 5): binds to adenosine receptors as an antagonist; behavioral effects twenty-four hours after the first dose (mice [2]; 300 mg/kg p.o., 24 hours): difficult to handle and displayed aggression toward cage-mates; qualitative behavioral difference between the enantiomers (mice [2]; daily dosing 30, 100, 300 mg/kg p.o.): appearing more potent in eliciting spontaneous seizures, irritability and aggressiveness; latency to onset of clonic seizures induced by infusion of pentylenetetrazole (PTZ) (mice [4]): significantly reduced the latency to onset of clonic seizures
4 | OC[C@H]1O[C@@H](n2cnc3c(NC4CCCCC4)ncnc32)[C@H](O)[C@@H]1O [CHA] | – | – | 7.7 | –
5 | CNC(=O)[C@H]1O[C@@H](n2cnc3c(N)ncnc32)[C@H](O)[C@@H]1O [MECA, 5′-N-methylcarboxamidoadenosine, reference compound] | 0.058 | – | – | –
6 | Nc1nc(NCCc2ccc(O)cc2)nc2nc(-c3ccco3)nn12 [ZM241385] | – | – | 151 | –

Source: patent US6664397B1, “Use of (+)mefloquine for the treatment of malaria” (Vernalis Research Limited, priority 1997, dated 2003)
